Laboratory results from paper PMC3672920, “Sulfated Metabolites of Polychlorinated Biphenyls Are High-Affinity Ligands for the Thyroid Hormone Transport Protein Transthyretin” (Environmental Health Perspectives, 2013).
Where a name gives a salt, the structure may show the parent alone.

Key:
recombinant hSULT1A1 = system: T1, recombinant hSULT1A1; assay: Sulfotransferase assay (PAP formation, HPLC); type: in vitro ADME, human; details: 200 µM PAPS, 37°C, pH 7.0, 10 min; for substrate for human SULT1A1: 0, 10, 20 or 30 µM OH-PCB, cytosolic extract of E. coli expressing hSULT1A1; for specific activity (rate of sulfation) with hSULT1A1, ranking in words: 10–30 µM OH-PCB
T1 construct: purchased Xenotech; host or cells: E. coli
Procedure: Sulfotransferase assay. The assays for sulfation of OH-PCBs catalyzed by hSULT1A1 were conducted according to a previously published procedure ([Liu et al. 2009]). Assay mixtures containing 0, 10, 20, or 30 µM of the potential substrate were preincubated at 37°C in the presence of 200 µM PAPS and 7.5 mM 2-mercaptoethanol in 250 mM potassium phosphate at pH 7.0. After adding 1 µL of cytosolic extract of E. coli expressing hSULT1A1 (10 µg cytosolic protein), the reaction mixture (total volume 30 µL) was incubated for 10 min before the reaction was terminated by the addition of 30 µL methanol. Samples (20 µL) were subsequently analyzed by HPLC to determine the amount of PAP formed in the reaction ([Sheng et al. 2001]).

TTR = biological target: T2, TTR (Homo sapiens, UniProt P02766); assay: HPLC analysis of PCB sulfates after incubation with TTR (stability, reversibility); type: physicochemical; details: 5 µM PCB sulfate, 0.5 µM TTR, phosphate buffer pH 7.4, 25°C, up to 120 min
T2 construct: TTR purified from human plasma (> 95%); purchased Sigma-Aldrich; host or cells: human plasma
Procedure: HPLC analysis of PCB sulfates. TTR (0.5 µM) and PCB sulfate (5 µM) were incubated in phosphate buffer (50 mM sodium phosphate, 100 mM NaCl; pH 7.4) at 25°C (± 0.5°C) for 120 min. After 0, 60, and 120 min, 20 µL samples were analyzed for PCB sulfates by chromatography on a C18 HPLC column with a linear acetonitrile gradient (15–95%) in triethylammonium acetate (1% vol/vol; pH 7.5). Detailed HPLC conditions and representative chromatograms are provided in Supplemental Material, Figure S3 (http://dx.doi.org/10.1289/ehp.1206198).
Supplemental Material, Fi g u r e S6: PCB sulfates are stable upon incubation with TTR, and the interaction is non-covalent. 5µM samples of PCB sulfates were incubated for up t o 120 […]
sodium phosphate, 100 mM NaCl, pH 7.4) at 25 °C. Their quantitative recover y (as compared to a corresponding 5 µM PCB sulfate standard) by HPLC indicated non- covalent binding interactions between PCB sulfates and TTR.
(1 picture or pasted object on this page, not shown here)

[1] = biological target: T3, TTR purified from human plasma (Homo sapiens, UniProt P02766); assay: ANS displacement assay (fluorescence probe displacement) for binding to TTR; details: low-affinity (second) binding site on TTR; ligand ≤ 2,000 nM; all data points fit to two-site binding equation; read-out: Kd2
T3 construct: TTR purified from human plasma (> 95%); purchased Sigma-Aldrich; host or cells: human plasma
Procedure: Three fluorescence measurements were averaged per determination, and at least three separate determinations were made at each ligand concentration. The protocol was optimized for ligand concentrations of ≤ 2,000 nM, and assays were conducted at 25°C (± 0.2°C) in quartz cuvettes with a 1-cm path length. […] Binding data were evaluated by fitting the means of each determination to both a one-site plus nonspecific binding equation [y = (Bmax1 × x)/(Kd1 + x) + Ns] and a two-site binding equation [y = (Bmax1 × x)/(Kd1 + x) + (Bmax2 × x)/(Kd2 + x)]. In these equations, Kd1 is the dissociation constant for the TTR-ligand complex and Kd2 is the dissociation constant for the TTR complex with two bound ligands, Bmax1 and Bmax2 are the relative changes in fluorescence required to saturate the respective binding sites and Ns is a constant representing low-affinity interactions. […] The variables x and y represent ligand concentrations and changes in fluorescence (Δ fluorescence), respectively. […] In order to determine Kd2 values, all available data points were fit to the two-site binding equation.

SMILES | melting point | substrate for human SULT1A1 (recombinant hSULT1A1) | specific activity (rate of sulfation) with hSULT1A1, ranking in words (recombinant hSULT1A1) | recovery of PCB sulfate by HPLC after incubation with TTR (stability) (TTR) | Kd [1]
O=S(=O)(O)Oc1ccc(-c2cccc(Cl)c2)cc1Cl (as salt: ammonium) [4´PCB 11 sulfate, 3,3´-dichloro-4´-sulfooxy-biphenyl] | 220 °C (dec.) | – | – | – | –
Oc1ccccc1-c1ccc(Cl)cc1 [2´OH-PCB 3, 4´-chloro-biphenyl-2-ol] | – | substrates | highest specific activities | – | –
O=S(=O)(O)Oc1ccccc1-c1ccc(Cl)cc1 [2´PCB 3 sulfate, 2´-sulfooxy-4-chloro-biphenyl] | – | – | – | quantitatively recovered | –
Oc1cccc(-c2ccc(Cl)cc2)c1 [3´OH-PCB 3, 4´-chloro-biphenyl-3-ol] | – | substrates | highest specific activities | – | –
O=S(=O)(O)Oc1cccc(-c2ccc(Cl)cc2)c1 [3´PCB 3 sulfate, 3´-sulfooxy-4-chloro-biphenyl] | – | – | – | quantitatively recovered | –
Oc1ccc(-c2ccc(Cl)cc2)cc1 [4´OH-PCB 3, 4´-chloro-biphenyl-4-ol] | – | substrates | slightly lower specific activities | – | –
Oc1ccc(-c2cccc(Cl)c2)cc1Cl [4´OH-PCB 11, 3,3´-dichloro-biphenyl-4-ol] | – | substrates | slightly lower specific activities | – | 624 ± 207 nM
Oc1ccc(-c2ccc(Cl)c(Cl)c2)cc1 [4´OH-PCB 12, 3´,4´-dichloro-biphenyl-4-ol] | – | substrates | slightly lower specific activities | – | 825 ± 47 nM
O=S(=O)(O)Oc1ccc(-c2ccc(Cl)cc2)cc1 [4´PCB 3 sulfate, 4-chloro-4´-sulfooxy-biphenyl] | – | – | – | quantitatively recovered | –
O=S(=O)(O)Oc1ccc(-c2cccc(Cl)c2)cc1Cl [4´PCB 11 sulfate, 3,3´-dichloro-4´-sulfooxy-biphenyl] | – | – | – | quantitatively recovered | 624 ± 63 nM
O=S(=O)(O)Oc1ccc(-c2ccc(Cl)c(Cl)c2)cc1 [4´PCB 12 sulfate, 3,4-dichloro-4´-sulfooxy-biphenyl] | – | – | – | quantitatively recovered | 742 ± 58 nM
